These results are taken from patent US20070224154A1, “Methods of reducing skin irritation” (ACCESS BUSINESS GROUP INTERNATIONAL, LLC, priority 2006, published 2007).

The experiment has as its system IL-1 alpha secretion by cocultures of fibroblasts and keratinocytes. Briefly: IL-1 alpha assay: ELISA of IL-1α secreted by fibroblast/keratinocyte cocultures exposed to a surfactant irritant with botanical added. Particulars: hand dishwashing detergent; for Percent IL-1 α Reduction AVG: average of 1%, 0.1%, 0.01%. The class given is cell-based, human. The source says:
IL-1 alpha is one cytokine often released near the beginning of the inflammation cascade, which ultimately leads to a human biological response resulting in visible and/or perceptual signs of irritation. Accordingly, by reducing the initial response to an irritant, such as a surfactant, the ultimate damaging reaction can be reduced, prevented, and/or eliminated.
The procedure for conducting IL-1 alpha assays is as follows: Cocultures of fibroblasts and keratinocytes, the primary cell types found in skin, are established using 100,000 fibroblasts and 200,000 keratinocytes per well. These types of cells are those found in the outer layers of the skin exposed to detergent during every day use. An irritant, for example the surfactant package used in a dish detergent (Example 1 below), is then applied to the coculture wells to initiate the production and secretion of pro-inflammatory cytokines by the cells. One such cytokine is human interleukin-1 alpha or IL-1α. In the body, this protein is a key mediator of the host response to infections and various inflammatory challenges. Once produced, IL-1α stimulates production of other pro-inflammatory cytokines and bioactive molecules. Together, these biological molecules send the message that something is wrong and the keratinocytes and fibroblasts need help. This is called the inflammatory response.
The amount of secreted IL-1α is directly related to the intensity of the inflammatory response. In vitro, the concentration of IL-1α secreted by the coculture cells in response to the irritant can be measured via a precise laboratory technique known as an Enzyme Linked Immuno-Sorbent Assay or ELISA. Thus, to test botanical materials for mildness, a lessening of IL-1α secretion, the mildness agents were added with the chemical irritant. When a reduction in IL-1α expression was observed, the mildness agents were successful. Theoretically, there are several mechanisms by which this could have been achieved at the cellular level. Without wishing to be bound to a particular theory or in any way limit the scope of the appended claims or their equivalents, it is presently believed that these mechanisms may include one or more of the following: the mildness agent could block the transcription of the DNA to RNA, translation of the RNA to protein, and/or release of the IL-1α from the cells. […] The mildness agent may also have stopped the cascade after the irritant works on the cell. Whatever the mechanism, the net result is the same. There is less IL-1α released by the cells which correlates to inhibition of events in the inflammatory cascade and ultimately, less inflammation.
These were prepared using a serial dilution technique: 1.0 g botanical was mixed well with 99.0 g dish detergent to give the 1.0% formulation; next, 10.0 g of the 1.0% solution was mixed well with 90.0 g of the dish detergent to give the 0.1% formulation; finally, 10.0 g of the 0.1% solution was mixed well with 90.0 g of the dish detergent to give the 0.01% formulation.

Catechin: the “Percent IL-1 α Reduction AVG” value is listed as 17.43%. In addition, the “Percent IL-1 α Reduction” value (botanical 0.01% by weight) was determined as 19.50%. For the same compound, where the note is “botanical 0.1% by weight”, the “Percent IL-1 α Reduction” value is given as 24.90%. Besides, where the note is “botanical 1% by weight”, the “Percent IL-1 α Reduction” value came out at 7.90%.
On the same counts, the results for glutaurylamidoethyl indole [GLISTIN] are 22.63%, 18.50%, 31.80% and 17.60%.
On the same counts, the results for `Oc1cc(O)c2c(c1)O[C@H](c1ccc(O)c(O)c1)[C@H](O)C2` [Epicatechin] are 29.97%, 26.2%, 22.1% and 41.6%.
For the compound `O=C1O[C@H]([C@@H](O)CO)C([O-])=C1OP(=O)([O-])[O-].O=C1O[C@H]([C@@H](O)CO)C([O-])=C1OP(=O)([O-])[O-].[Mg+2].[Mg+2].[Mg+2]` [VC-PMG, Magnesium Ascorbyl Phosphate], the “Percent IL-1 α Reduction AVG” value is listed as 21.93%. Also, under “botanical 0.01% by weight”, the “Percent IL-1 α Reduction” value is on record as 29.70%. In addition, the “Percent IL-1 α Reduction” value (botanical 0.1% by weight) worked out at 23.80%. In addition, for the setting “botanical 1% by weight”, the “Percent IL-1 α Reduction” value amounted to 12.30%.
Consider `CCCCCCCCCCCCCCCCCCOC(=O)[C@@]1(C)CC[C@]2(C)CC[C@]3(C)C(=CC(=O)[C@@H]4[C@@]5(C)CC[C@H](O)C(C)(C)[C@@H]5CC[C@]43C)[C@@H]2C1` [NET-STG, stearyl glycyrrhetinate], for which the “Percent IL-1 α Reduction AVG” value amounted to 13.10%. Besides, the “Percent IL-1 α Reduction” value (botanical 0.01% by weight) is on record as 14.70%. In addition, the “Percent IL-1 α Reduction” value (botanical 0.1% by weight) turned out to be 11.40%. The “Percent IL-1 α Reduction” value (botanical 1% by weight) is 13.20%.
As to `CC(C)=CCC[C@](C)(O)[C@@H]1CC=C(C)CC1` [Alpha bisabolol, (−)-α-bisabolol], the “Percent IL-1 α Reduction AVG” value came out at 6.67%. Besides, under “botanical 0.01% by weight”, the “Percent IL-1 α Reduction” value worked out at 19.00%. Further, the “Percent IL-1 α Reduction” value (botanical 0.1% by weight) worked out at 2.00%. In addition, where the note is “botanical 1% by weight”, the “Percent IL-1 α Reduction” value is recorded as −1.00%.
With Dimethiconol Panthenol [D.S.H. C N], the “Percent IL-1 α Reduction AVG” value worked out at 19.31%. Under “botanical 0.01% by weight”, the “Percent IL-1 α Reduction” value was 22.25%. For the same compound, for the setting “botanical 0.1% by weight”, the “Percent IL-1 α Reduction” value worked out at 16.43%. The “Percent IL-1 α Reduction” value (botanical 1% by weight) is listed as 19.24%.
On the same counts, the results for `O=C1O[C@H]([C@@H](O)CO)C(O)=C1O` [Vitamin C] are 7.33%, 10.30%, 8.50% and 3.20%.
The matching figures for “Dimethylsilanol Hyaluronate [AMINO DL-30]”: 12.07%, 21.81%, 7.18% and 7.22%.
Consider Vitamin B12, for which the “Percent IL-1 α Reduction AVG” value was found to be 9.17%. Also, the “Percent IL-1 α Reduction” value (botanical 0.01% by weight) is reported as 17.70%. For the same compound, the “Percent IL-1 α Reduction” value (botanical 0.1% by weight) was −3.20%. The “Percent IL-1 α Reduction” value (botanical 1% by weight) is on record as 13.00%.
On the same counts, the results for `O=C(O[C@@H]1Cc2c(O)cc(O)cc2O[C@@H]1c1cc(O)c(O)c(O)c1)c1cc(O)c(O)c(O)c1` [EGCG, epigallocatechin gallate] are 10.50%, 12.50%, 12.10% and 6.90%.
The matching figures for `O=C(/C=C/c1ccc(O)c(O)c1)O[C@H](Cc1ccc(O)c(O)c1)C(=O)O` [Rosmarinic Acid]: 28.80%, 34.5%, 31.8% and 20.1%.
The matching figures for Ceramide: 7.73%, −0.60%, 14.70% and 9.10%.
`CC(C)=CCCC(C)=CCCC(C)=CCO` [Farnesol]: the “Percent IL-1 α Reduction AVG” value is 19.10%. The “Percent IL-1 α Reduction” value (botanical 0.01% by weight) is recorded as 14.50%. The “Percent IL-1 α Reduction” value (botanical 0.1% by weight) was 15.50%. Also, the “Percent IL-1 α Reduction” value (botanical 1% by weight) came to 27.30%.
The matching figures for `O=P(O)(O)O[C@H]1[C@H](OP(=O)(O)O)[C@@H](OP(=O)(O)O)[C@H](OP(=O)(O)O)[C@@H](OP(=O)(O)O)[C@H]1OP(=O)(O)O` [PHYTIC ACID EXTREME, phytic acid]: 14.16%, 15.01%, 12.56% and 14.91%.
On to `CC(=O)Oc1c(C)c(C)c2c(c1C)CCC(C)(CCC[C@H](C)CCC[C@H](C)CCCC(C)C)O2` (stereo partly shown) [Vitamin E acetate], for which the “Percent IL-1 α Reduction AVG” value came to 26.73%. In addition, the “Percent IL-1 α Reduction” value (botanical 0.01% by weight) is listed as 25.80%. Moreover, the “Percent IL-1 α Reduction” value (botanical 0.1% by weight) was found to be 27.50%. For the same compound, where the note is “botanical 1% by weight”, the “Percent IL-1 α Reduction” value is listed as 26.90%.
